# In patent US20230107216A1, “PANTETHEINE DERIVATIVES AND USES THEREOF” (Comet Therapeutics, Inc., priority 2018, published 2023):
# Like-named read-outs stand apart in the source and are kept apart here.
# How the values were obtained:
# [1] = tested on: Methylmalonic Acidemia (MMA) primary fibroblasts Tsi 5224; experiment: Mitochondrial respiration, XFe96 Extracellular Flux Analyzer (OCR/ECAR), MMA fibroblasts Tsi 5224; type: cell-based; settings: Homo sapiens, Fibroblast, read-out: Increase in Maximal Respiratory Capacity AUC;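 note: relative to vehicle DMSO control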
# Protocol: The effect of the compounds of the present disclosure on mitochondrial respiration was measured with a XFe96 Extracellular Flux Analyzer (Seahorse Bioscience, Agilent Technologies) and Oxygen consumption Rate (OCR) and Extracellular acidification rate (ECAR) determined.
# Cell culture and treatments. Primary adherent fibroblasts were cultured in minimum essential medium (MEM) (Gibco, 25030081) supplemented with 2 mM L-Glutamine (Gibco, 25030081), 15% fetal bovine serum (FBS) (Gibco, 26400044) and 1% penicillin/streptomycin (Gibco, 5140122) at 37° C. and 5% CO2. Cells were collected for either passaging or experiment at ˜70-80% confluence. Cells were obtained by trypsinization and seeded at 20000 cells/well in cell culture microplates (Seahorse Bioscience, 101085-004) and allowed to adhere for 16 hours in culture media.
# By profiling different primary cells and/or optimizing their culture media or environmental components one can select cell lines and/or conditions that are appropriate for the biological or disease model. In the present example, 24 hours prior to OCR and ECAR profiling, media was changed to Dulbecco's Modified Eagle Medium (DMEM, Agilent Seahorse 103575-100) with the appropriate supplements for the different primary cells (10 mM glucose, 2 mM L-glutamine, 1 mM pyruvate, 10% FBS; 1 mM glucose, 2 mM L-glutamine, 1 mM pyruvate, 10% FBS; 10 mM glucose, 10% FBS; 5 mM glucose 10% FBS; 1 mM glucose 10% FBS). Cells used in this example were: Propionic Acidemia (PA) (GM00371, GM03590 Coriell Institute for Medical Research, Tsi 6337, Tsi 4626, Tsi 3618 Trans-Hit Bio), Methylmalonic Acidemia (MMA) (GM01673, Coriell Institute for Medical Research, Tsi 5224 Trans-Hit Bio), Branched chain ketoacid dehydrogenase kinase (BCKDK) (GM00612, GM00649 Coriell Institute for Medical Research), Subnormal activation of pyruvate dehydrogenase complex (PDH) (GM01503 Coriell Institute for Medical Research), Very long-chain acyl-CoA dehydrogenase (VLCAD) (GM17475), Leigh Syndrome (LS) (GM03672, GM13411 Coriell Institute for Medical Research), Pyruvate Carboxylase Deficiency (PC) (GM00444 Coriell Institute for Medical Research), Glutaric Acidemia-I (GA) (GM10653), Friedreich's Ataxia (FXN) (GM04078 Coriell Institute for Medical Research, Huntington's disease (HD) (GM21756 Coriell Institute for Medical Research), Ornithine Transcarbamylase Deficiency (OTC) (GM12756 Coriell Institute for Medical Research), Kearns-Sayre Syndrome (KSS) (GM06225 Coriell Institute for Medical Research).
# One hour before the assay, the cells were washed with freshly prepared unbuffered serum free-Seahorse XF Assay medium (Seahorse Bioscience, North America, USA, 103575-100) with the same supplements as for the previous 24 hour incubation.
# After baseline measurements of OCR, cells were challenged with compounds of the present disclosure at different concentrations (10 to 50 μM) or vehicle (DMSO, 0.1%) and a post-compound baseline was recorded. OCR was measured after sequentially adding to each well 1 μg/ml oligomycin (inhibitor of ATP synthase Sigma-Aldrich, 753531), then maximal OCR was determined with carbonyl cyanide 4-(trifluoromethoxy) phenylhydrazone (FCCP, Sigma-Aldrich, C2920), (uncoupler of oxidative phosphorylation) and 0.5 μM of rotenone (Sigma-Aldrich, R8875) plus antimycin A (Sigma-Aldrich, A8674) (inhibitors of mitochondrial complex I and III) for determination of rotenone-antimycin insensitive respiration together with Hoechst for nuclear staining in situ when normalized to cell counts. After the analysis and nuclear staining, the XFp microplate was transferred to the Cytation 5, and the nuclear images were captured, the individual nuclei were identified and counted by BioTek Gen5 software. Data were expressed as pmol of O2 per minute and normalized by nuclear staining and baselined to pre-compound addition.
# Assay conditions were as stated below.
# Assay specifics on assay conditions are indicated below when readouts were normalized to cell counts. […]
# [2] = tested on: primary fibroblasts (healthy controls and PA, MMA, BCKDK, PDH, VLCAD, LS, PC, GA, VLCFA, KSS, FXN, HD); experiment: Measurement of ROS (H2DCFDA) in primary fibroblasts; type: cell-based, human; settings: Homo sapiens, procedure Example 812
# Protocol: Primary adherent fibroblasts were cultured in minimum essential medium (MEM) (Gibco, 25030081) supplemented with 2 mM L-Glutamine (Gibco, 25030081), 15% fetal bovine serum (FBS) (Gibco, 26400044) and 1% penicillin/streptomycin (Gibco, 5140122) at 37° C. and 5% CO2. Cells were collected for either passaging or experiment at ˜70-80% confluence. Cells were obtained by trypsinization and seeded in cell culture microplates either white plate (Thermo Fisher Scientific, 152028) for luminescent measurement or black plate (Thermo Fisher Scientific, 165305) for fluorescent based read out for different assays listed below. Cells were obtained by trypsinization and […] were seeded and allowed to adhere for 16-18 hours to have confluency around 70-80% in the cell well with culture media. After 24 hours prior to measurements (37° C., 5% CO2) media was changed to Dulbecco's Modified Eagle Medium (DMEM, Agilent Seahorse cat #103575-100) with the appropriate supplements as stated below.
# Primary fibroblasts assayed were Healthy controls (GM00041, GM05659, GM23974 Coriell Institute for Medical Research), Propionic Acidemia (PA) (GM00371, GM03590 Coriell Institute for Medical Research, Tsi 6337 Trans-Hit Bio), Methylmalonic Acidemia (MMA) (GM01673, Coriell Institute for Medical Research, Tsi 5224, Tsi 4290 Trans-Hit Bio), Branched chain ketoacid dehydrogenase kinase (BCKDK) (GM00612, GM00649 Coriell Institute for Medical Research), Subnormal activation of pyruvate dehydrogenase complex (PDH) (GM01503 Coriell Institute for Medical Research), Very long-chain acyl-CoA dehydrogenase (VLCAD) (GM17475), Leigh Syndrome (LS) (GM03672, GM13411 Coriell Institute for Medical Research), Pyruvate Carboxylase Deficiency (PC) (GM00444 Coriell Institute for Medical Research), Glutaric Acidemia-I (GA), Impaired VLCFA oxidation (VLCFA) (GM13262), Kearns-Sayre Syndrome (KSS) (GM06225 Coriell Institute for Medical Research), Friedreich's Ataxia (FXN), Huntington's disease (HD) (GM21756 Coriell Institute for Medical Research). Next, cells were treated with compounds (10 μM) and ROS H2DCFDA (22 μM) dye for 2 hours in PA, MMA lines and for 24h for the other fibroblast lines. Kinetic read was started immediately with a i3x plate reader (492/527 nm) for 60 minutes.
# A total dead cell count was performed as described in Example 817 and only alive cells were used for analysis.
# [3] = tested on: HepG2 cells; experiment: Mitochondrial membrane potential (MITO-ID MP detection Kit); type: cell-based; settings: Homo sapiens, 168 h, 7 days
# Protocol: HepG2 cells (ATCC, HB-8065) were cultured (5% CO2 at 37° C.) and plated in Poly-D-Lysine 384-Well plate (Corning, 356663) at a density of 160000 cells/mL in 50 μL/well. Culture and assay media consisted of DMEM (Gibco, 11995-065) supplemented with 1% Penicillin-Streptomycin and 10% FBS (Hyclone, SV30087.03).
# MITO-ID® MP detection Kit (ENZ-51018) was used and manufacturer instructions followed. Cells were allowed to settle for 30 min at room temperature and further incubated overnight (37° C. and 5% CO2) for adherence. Next day, test compounds (50-10 μM) and vehicle DMSO (0.2%) were added at the recommended volumes to the 384-well plate for 7 days without media change using a Tecan compound dispenser. All the solutions and wash buffers were prepared and dispensed according to manufacturer's volumes for a 384-well plate format.
# [4] = tested on: monocyte-derived M1 macrophages; experiment: M1 differentiation assay (macrophage TNFα, IL6, IL10 ELISA, FACS); type: cell-based, human; settings: Homo sapiens, Macrophage
# Protocol: Monocytes were isolated by positive isolation with CD14+ microbeads (Miltenyi, 130-050-201). Monocytes were 99% viable and were 96% purity as analyzed by FACS and CD14+ (BD, 563561). 100,000 monocytes along with compounds at the dose of 10 and 50 μM were allowed to differentiate to macrophages with 10 ng/ml GMCSF (R&D, 15-GM-050/CF) in RPMI complete media (Invitrogen, 22400089) with 15% FBS (Hyclone SV30087.03) and 1% Penicillin-Streptomycin (Gibco, 15140-122). On day 2 and 4 half the media was refreshed with fresh GM-CSF and compounds at 10 and 50 μM dose. On day 6 the macrophages were matured with GMCSF, IFNγ (R&D 285-IF-100/CF) and LPS (Sigma, L6143) in the presence of 10 μM and 50 μM of compounds. After 24h, supernatant was collected for the measurement of TNFα (DKW, 1117202) IL6 (DKW, 1110602), IL10 (DKW, 1110003) by ELISA. Macrophages were detached gently on ice with EDTA (Invitrogen, 15575-038) and analyzed by FACS (BD LSR Fortessa, 853492). Cells were stained for live/dead dye, surface and intracellular markers with fixation/permeabilization solution (BD, 554714) and ALIVE/DEAD™ Fixable Near-IR Dead Cell Stain Kit (BD, L34976), mouse anti human CD86 APC (BD, 555660), mouse anti-human CD163 PE (BD, 556018), mouse anti-human CD68 FITC (BD, 562117) or isotype controls anti-mouse IgG1 κ PE (BD, 559320) and anti-mouse IgG1 κ APC (BD, Anti mouse IgG1 κ APC (BD, 55571). Mature M1 macrophages were defined as CD86+CD68+CD163− and increase in TNFα, IL6, and decrease in IL-10.
# [5] = tested on: Venular Endothelial cells (HUVEC) (4H system); experiment: BioMAP 4H system (IL-4 and histamine); type: cell-based, human; settings: procedure of Example 826; for % decrease in Eotaxin-3: 1 uM
# [6] = tested on: Peripheral blood mononuclear cells co-cultured with venular endothelial cells (HUVEC) (LPS system); experiment: BioMAP LPS system; type: cell-based, human; settings: Homo sapiens, HUVEC, 24 h, 10 uM, procedure of Example 827
# [7] = Fibroblast, BCKD GM00612, Assay Condition A, read-out: Decreased ROS by at least 10%
# [8] = MMA Tsi 5224, assay condition A (10 mM glucose, 2 mM L-glutamine, 1 mM pyruvate, 10% FBS)
smiles,measurement,setting,value
CC(C)(CO)[C@@H](O)C(=O)NCCC(=O)NCCSC(=O)C(O)CO (stereo partly shown) [Compound 399],activation at 10 µM,"[1]; MMA Tsi 5224, assay condition D (1 mM glucose, 10% FBS)",≥ 10%
same,inhibition at 10 µM,[2]; [7],≥ 10%
same,inhibition at 10 µM,"[3]; 10 uM, read-out: % decrease in Mitochondrial Membrane Potential",> 30%
"CC1(C)OC(=O)C(CC(=O)SCCNC(=O)CCNC(=O)[C@H](O)C(C)(C)CO)O1 (stereo partly drawn) [Compound 1238, S-(2-(3-((R)-2,4-dihydroxy-3,3-dimethylbutanamido)propanamido)ethyl) 2-(2,2-dimethyl-5-oxo-1,3-dioxolan-4-yl)ethanethioate]",activation at 10 µM,[1]; [8],≥ 10%
same,inhibition at 10 µM,"[4]; 10 uM, read-out: % decrease in Macrophage TNFα Secretion",≥ 30%
same,activation at 50 µM,"[3]; 50 uM, read-out: % increase in Mitochondrial Membrane Potential",20%
COC(=O)C[C@H](N)C(=O)SCCNC(=O)CCNC(=O)[C@H](O)C(C)(C)CO [Compound 451],% decrease in Eotaxin-3,[5],≥10%
"C/C=C/C(=O)CC(=O)SCCNC(=O)CCNC(=O)[C@H](O)C(C)(C)CO [Compound 36, (2R)-2,4-dihydroxy-3,3-dimethyl-N-[2-[(2-[[(4E)-3-oxohex-4-enoyl]sulfanyl]ethyl)carbamoyl]ethyl]butanamide]",activation at 10 µM,[1]; [8],≥ 10%
same,% decrease in Eotaxin-3,[5],≥10%
CC(=O)NCCCC(=O)OCC(C)(C)[C@@H](O)C(=O)NCCC(=O)NCCSC(=O)CC(=O)NCCc1c[nH]cn1 [Compound 633],% decrease in Eotaxin-3,[5],≥10%
"CCC(=O)C(C)C(=O)SCCNC(=O)CCNC(=O)[C@H](O)C(C)(C)CO (stereo partly drawn) [Compound 1251, S-(2-(3-((R)-2,4-dihydroxy-3,3-dimethylbutanamido)propanamido)ethyl) 2-methyl-3-oxopentanethioate]",inhibition at 50 µM,[4]; read-out: % decrease in Macrophage IL-6 Secretion,≥ 30%
same,inhibition at 50 µM,[4]; read-out: % decrease in Macrophage TNFα Secretion,≥ 30%
same,inhibition at 10 µM,[2]; [7],≥ 10%
same,inhibition at 10 µM,"[2]; Fibroblast, VLCFA GM13262, Assay Condition C, read-out: Decreased ROS by at least 30%",≥ 30%
same,inhibition at 10 µM,"[2]; FXN GM04078, Assay Condition C, read-out: Decreased ROS by at least 10%",≥ 10%
same,inhibition at 10 µM,"[2]; FXN GM04078, Assay Condition C, read-out: Decreased ROS by at least 30%",≥ 30%
same,inhibition at 50 µM,"[3]; 50 uM, read-out: % decrease in Mitochondrial Membrane Potential",> 30%
CC(C)(CO)[C@@H](O)C(=O)NCCC(=O)NCCS [Prep Ex 5],inhibition at 10 µM,"[5]; Homo sapiens, HUVEC, 24 h, 10 uM, read-out: % decrease in E-Selectin",≥ 20%
same,inhibition at 10 µM,[6]; read-out: % decrease in IL-1α,≥ 20%
same,inhibition at 10 µM,[6]; read-out: % decrease in IL-8,≥ 10%
same,inhibition at 10 µM,[6]; read-out: % decrease in TissueFactor,≥ 10%
same,activation at 10 µM,[6]; read-out: % increase in sTNFα,≥ 20%
